Laboratory results taken from patent US12551536B2, “Semaglutide in medical therapy” (Novo Nordisk A/S, priority 2017, dated 2026).

What was measured:
[1] = 52-week clinical trial of once-daily semaglutide in obese subjects without diabetes mellitus: change in body weight; assay type: in vivo, human; conditions: for Change in body weight (%) from baseline to week 52, Change (%) Estimate / Change in body weight, Treatment difference (%-points) vs. Lira 3.0 mg / Change in body weight, Treatment difference (%-points) vs. Placebo Pool: ANCOVA, J2R-MI; for Change in body weight (%) from baseline at week 52, Model prediction (Estimate) %: Emax dose-response modelling; for Change in body weight (%) from baseline to week 52, Subjects in-trial, Mean / Change in body weight (%) from baseline to week 52, Subjects on-treatment, Mean: observed data
Description: This trial was designed as a 52-week, randomised, double-blind, placebo-controlled, sixteen-armed, parallel group, multi-centre, multinational trial comparing once-daily subcutaneous administration of semaglutide in five different doses (ranging from 0.05 mg/day to 0.4 mg/day) with placebo in obese subjects without diabetes mellitus. […] The trial was double-blinded between active and placebo treatment. To ensure a sufficiently large sample of men, no more than 70% of the trial population was allowed to be women and the randomisation was stratified according to sex. Subjects were randomised in a balanced manner (6:1 active:placebo).
The primary endpoint was relative change from baseline in body weight (%) at 52 weeks. Key secondary endpoints included proportion of subjects with weight loss of ≥5% or ≥10% of baseline body weight at 52 weeks as well as change in body weight from baseline to 52 weeks. Supportive secondary safety endpoints also included gastrointestinal (GI) adverse events (i.e. nausea, vomiting, diarrhoea and constipation). During each site visit the individual subject was asked via open questions if they had experienced any medical problems since the last visit. All medical problems either observed by the site staff or the subject was reported as an adverse event and evaluated for severity and causality by the investigator. For this trial the subjects had site visits every 2 weeks for the first 20 weeks of the trial and afterwards site visits was performed every 4 weeks.
Subjects in all treatment arms including placebo received nutritional counselling and a calorie-reduced diet by a dietician or equivalent qualified delegate as well as physical activity counselling by a qualified person on a monthly basis beginning at the randomisation visit. The trial population consisted of a total of 957 subjects were randomised. A total of 777 subjects (81.2%) completed 52 weeks of treatment; 180 (18.8%) discontinued treatment prematurely with no obvious dose-dependent trend. Key inclusion criteria for this trial were: Male or female, age ≥18 years at the time of signing inform consent; body mass index (BMI)≥30.0 kg/m2 at the screening visit; and at least one unsuccessful weight loss attempt per investigator judgement. Key exclusion criteria for this trial were: A HbA1c≥6.5% at screening or diagnosed with type 1 or type 2 diabetes mellitus; Treatment with glucose lowering agent(s) within 90 days before screening; Screening calcitonin ≥50 ng/L (pg/mL); Personal or family history of medullary thyroid carcinoma or multiple endocrine neoplasia syndrome type 2; History of pancreatitis (acute or chronic); Obesity induced by endocrine disorders (e.g. Cushing Syndrome); Treatment with any medication within 90 days before screening that based on investigator's judgement may cause significant weight change; Previous surgical treatment for obesity (liposuction and/or abdominoplasty performed >1 year before screening is allowed); History of major depressive disorder within 2 years before randomisation; Any lifetime history of a suicidal attempt; and Female who is pregnant, breast-feeding or intends to become pregnant or is of childbearing potential and not using an adequate contraceptive method (adequate contraceptive measures as required by local regulation or practice).
Statistical analyses of effect endpoints: The primary analysis was based on a ‘jump-to-reference’ multiple imputation approach (J2R-MI). Week 52 data from subjects who discontinued trial product and returned for the visit at week 52 were included in the analysis. First, an imputation model using observed week 52 body weight (kg) measurements from the placebo arm only were estimated. Second, multiple copies (1000) of the full analysis set were generated by imputing missing values in all treatment arms from the imputation model. The primary endpoint was calculated in each complete data set and analysed using an analysis of covariance (ANCOVA) model. […]

[2] = 26-week clinical trial in adult patients with T2D: body weight change; assay type: in vivo, human; conditions: on-treatment, estimated data
Description: A 26-week, randomized, double-blind clinical trial was carried out with adult patients with T2D, HbA1c 7.0-10.0% (53-86 mmol/mol), and body mass index 24.0-40.0 kg/m^2 who were treated with diet and exercise±metformin. […] The primary endpoint was change in HbA1c from baseline to week 26. Key exclusion criteria were a history of chronic or idiopathic acute pancreatitis and moderate-to-severe renal impairment (estimated glomerular filtration rate <60 mL/min/1.73 m^2).
Trial drug administration: Following a 2-week screening period, patients received trial medication for 26 weeks, followed by a 7-week follow-up period. […] The trial was double blinded within (but not between) each dose level of semaglutide, liraglutide and placebo, as treatment was volume matched.

[3] = Sema 0.05 mg once daily s.c., week 52
[4] = Sema 0.1 mg once daily s.c., week 52
[5] = Sema 0.2 mg once daily s.c., week 52
[6] = Sema 0.3 mg once daily s.c., week 52
[7] = Sema 0.4 mg once daily s.c., week 52

N^6.26-{18-[N-(17-carboxyheptadecanoyl)-L-γ-glutamyl]-10-oxo-3,6,12,15-tetraoxa-9,18-diazaoctadecanoyl}-[8-(2-amino-2-propanoic acid),34-L-arginine]human glucagon-like peptide 1(7-37) [Sema]
Corresponding Sema dose (dosage of semaglutide providing the same body weight reduction as 3.0 mg liraglutide) ([1]; Lira 3.0 mg, Emax model, Estimate [95% CI], week 52): 0.08 mg | Change in body weight (%) from baseline to week 52, Change (%) Estimate ([1]; Sema 0.05 mg once daily s.c.): −5.99% | Change in body weight, Treatment difference (%-points) vs. Lira 3.0 mg [1, 3]: 1.77 %-points | Change in body weight, Treatment difference (%-points) vs. Placebo Pool [1, 3]: −3.70 %-points | Change in body weight (%) from baseline at week 52, Model prediction (Estimate) % ([1]; Sema 0.05 mg): −6.19% | Change in body weight (%) from baseline to week 52, Change (%) Estimate ([1]; Sema 0.1 mg once daily s.c.): −8.62% | Change in body weight (%) from baseline to week 52, Subjects in-trial, Mean ([1]; Sema 0.1 mg once daily s.c.): −9.11% | Change in body weight (%) from baseline to week 52, Subjects on-treatment, Mean ([1]; Sema 0.1 mg once daily s.c.): −9.76% | Change in body weight, Treatment difference (%-points) vs. Lira 3.0 mg [1, 4]: −0.85 %-points | Change in body weight, Treatment difference (%-points) vs. Placebo Pool [1, 4]: −6.32 %-points | Change in body weight (%) from baseline at week 52, Model prediction (Estimate) % ([1]; Sema 0.1 mg): −8.47% | Change in body weight (%) from baseline to week 52, Change (%) Estimate ([1]; Sema 0.2 mg once daily s.c.): −11.60% | Change in body weight (%) from baseline to week 52, Subjects in-trial, Mean ([1]; Sema 0.2 mg once daily s.c.): −12.54% | Change in body weight (%) from baseline to week 52, Subjects on-treatment, Mean ([1]; Sema 0.2 mg once daily s.c.): −13.68% | Change in body weight, Treatment difference (%-points) vs. Lira 3.0 mg [1, 5]: −3.83 %-points | Change in body weight, Treatment difference (%-points) vs. Placebo Pool [1, 5]: −9.31 %-points | Change in body weight (%) from baseline at week 52, Model prediction (Estimate) % ([1]; Sema 0.2 mg): −11.00% | Change in body weight (%) from baseline to week 52, Change (%) Estimate ([1]; Sema 0.3 mg once daily s.c.): −11.17% | Change in body weight (%) from baseline to week 52, Subjects in-trial, Mean ([1]; Sema 0.3 mg once daily s.c.): −12.06% | Change in body weight (%) from baseline to week 52, Subjects on-treatment, Mean ([1]; Sema 0.3 mg once daily s.c.): −12.97% | Change in body weight, Treatment difference (%-points) vs. Lira 3.0 mg [1, 6]: −3.41 %-points | Change in body weight, Treatment difference (%-points) vs. Placebo Pool [1, 6]: −8.88 %-points | Change in body weight (%) from baseline at week 52, Model prediction (Estimate) % ([1]; Sema 0.3 mg): −12.37% | Change in body weight (%) from baseline to week 52, Change (%) Estimate ([1]; Sema 0.4 mg once daily s.c.): −13.84% | Change in body weight (%) from baseline to week 52, Subjects in-trial, Mean ([1]; Sema 0.4 mg once daily s.c.): −13.96% | Change in body weight (%) from baseline to week 52, Subjects on-treatment, Mean ([1]; Sema 0.4 mg once daily s.c.): −16.17% | Change in body weight, Treatment difference (%-points) vs. Lira 3.0 mg [1, 7]: −6.08 %-points | Change in body weight, Treatment difference (%-points) vs. Placebo Pool [1, 7]: −11.55 %-points | Change in body weight (%) from baseline at week 52, Model prediction (Estimate) % ([1]; Sema 0.4 mg): −13.24% | Change in body weight (%) from baseline to week 52, Subjects in-trial, Mean ([1]; Sema 0.5 mg once daily s.c.): −6.33% | Change in body weight (%) from baseline to week 52, Subjects on-treatment, Mean ([1]; Sema 0.5 mg once daily s.c.): −6.79% | Body weight change, mean (kg), baseline to week 26 ([2]; Sema 0.05 mg once daily s.c.): -2.8 kg | Body weight change, mean (kg), baseline to week 26 ([2]; Sema 0.1 mg once daily s.c.): -4.3 kg | Body weight change, mean (kg), baseline to week 26 ([2]; Sema 0.2 mg once daily s.c.): -6.7 kg | Body weight change, mean (kg), baseline to week 26 ([2]; Sema 0.3 mg once daily s.c.): -8.2 kg
